From US20190308035A1, “A NON-INVASIVE METHOD FOR SELECTIVE NEURAL STIMULATION BY ULTRASOUND” (priority 2018, published 2019)
“Also recorded” adds a separate entry of the source. Bridge positions count the residues as written; N and C are the ends. Ends that are not written are not given here.

What was measured:
[1] = system: CLU199 cells; test: qPCR array of cAMP/calcium signalling genes in CLU199 cells; format: cell-based, mouse; conditions: array of 84 genes, Yodal 1 μM, vs untreated control
Procedure: Ultrasonic effects in CLU199 cells were explored using a qPCR array that probes 84 genes known to have Ca2+ responsive elements of various kinds.
A qRT-PCR array that explores genes that regulate calcium-related signalling (RT2 Pathway Finder) was used to evaluate how ultrasound treatment affects cellular signalling. Cells were also either pre-treated with GsMTx-4 (10 μM) before ultrasound or treated with Yodal (1 μM) by way of comparison. Results of the PCR were uploaded to Qiagen/SABiosciences online suite for data analysis, and clustergrams were generated using this software. Information about various subgroups of genes described here (FIG. 2J) were obtained from the product literature.
CLU199 cells seeded in 35 mm dishes were treated with ultrasound, Yodal or GsMTx-4 as appropriate. Total RNA was collected as described in section 7, and the concentration measured on NanoDrop™ One (Thermo Fisher Scientific). Samples with 260/280>1.8 and 260/230>2.0 were run on a 1% agarose gel containing bleach to check for RNA integrity (2). […] Ct values were calculated using the Quantstudio™ software, exported into a spreadsheet and uploaded to SABiosciences' online array data analysis software (accessible at: http://pcrdataanalysis.sabiosciences.com/per/arrayanalysis.php). […] Resulting clustergrams and a spreadsheet containing the analyzed results were obtained from this software. […]

[2] = target: T1, Piezo1 (Mus musculus, UniProt E2JF22); test: Calcium imaging (Cal590) in 293T cells overexpressing Piezo1; format: cell-based; set-up: EGFP; expressed in transfected cells; host or cells: 293T cells (ATCC), pcDNA3.1 Piezo1-EGFP plasmid provided by Dr. Ardem Patapoutian; conditions: Yodal; 293T cells overexpressing Piezo1 vs control cells
T1 sequence (E2JF22 whole entry): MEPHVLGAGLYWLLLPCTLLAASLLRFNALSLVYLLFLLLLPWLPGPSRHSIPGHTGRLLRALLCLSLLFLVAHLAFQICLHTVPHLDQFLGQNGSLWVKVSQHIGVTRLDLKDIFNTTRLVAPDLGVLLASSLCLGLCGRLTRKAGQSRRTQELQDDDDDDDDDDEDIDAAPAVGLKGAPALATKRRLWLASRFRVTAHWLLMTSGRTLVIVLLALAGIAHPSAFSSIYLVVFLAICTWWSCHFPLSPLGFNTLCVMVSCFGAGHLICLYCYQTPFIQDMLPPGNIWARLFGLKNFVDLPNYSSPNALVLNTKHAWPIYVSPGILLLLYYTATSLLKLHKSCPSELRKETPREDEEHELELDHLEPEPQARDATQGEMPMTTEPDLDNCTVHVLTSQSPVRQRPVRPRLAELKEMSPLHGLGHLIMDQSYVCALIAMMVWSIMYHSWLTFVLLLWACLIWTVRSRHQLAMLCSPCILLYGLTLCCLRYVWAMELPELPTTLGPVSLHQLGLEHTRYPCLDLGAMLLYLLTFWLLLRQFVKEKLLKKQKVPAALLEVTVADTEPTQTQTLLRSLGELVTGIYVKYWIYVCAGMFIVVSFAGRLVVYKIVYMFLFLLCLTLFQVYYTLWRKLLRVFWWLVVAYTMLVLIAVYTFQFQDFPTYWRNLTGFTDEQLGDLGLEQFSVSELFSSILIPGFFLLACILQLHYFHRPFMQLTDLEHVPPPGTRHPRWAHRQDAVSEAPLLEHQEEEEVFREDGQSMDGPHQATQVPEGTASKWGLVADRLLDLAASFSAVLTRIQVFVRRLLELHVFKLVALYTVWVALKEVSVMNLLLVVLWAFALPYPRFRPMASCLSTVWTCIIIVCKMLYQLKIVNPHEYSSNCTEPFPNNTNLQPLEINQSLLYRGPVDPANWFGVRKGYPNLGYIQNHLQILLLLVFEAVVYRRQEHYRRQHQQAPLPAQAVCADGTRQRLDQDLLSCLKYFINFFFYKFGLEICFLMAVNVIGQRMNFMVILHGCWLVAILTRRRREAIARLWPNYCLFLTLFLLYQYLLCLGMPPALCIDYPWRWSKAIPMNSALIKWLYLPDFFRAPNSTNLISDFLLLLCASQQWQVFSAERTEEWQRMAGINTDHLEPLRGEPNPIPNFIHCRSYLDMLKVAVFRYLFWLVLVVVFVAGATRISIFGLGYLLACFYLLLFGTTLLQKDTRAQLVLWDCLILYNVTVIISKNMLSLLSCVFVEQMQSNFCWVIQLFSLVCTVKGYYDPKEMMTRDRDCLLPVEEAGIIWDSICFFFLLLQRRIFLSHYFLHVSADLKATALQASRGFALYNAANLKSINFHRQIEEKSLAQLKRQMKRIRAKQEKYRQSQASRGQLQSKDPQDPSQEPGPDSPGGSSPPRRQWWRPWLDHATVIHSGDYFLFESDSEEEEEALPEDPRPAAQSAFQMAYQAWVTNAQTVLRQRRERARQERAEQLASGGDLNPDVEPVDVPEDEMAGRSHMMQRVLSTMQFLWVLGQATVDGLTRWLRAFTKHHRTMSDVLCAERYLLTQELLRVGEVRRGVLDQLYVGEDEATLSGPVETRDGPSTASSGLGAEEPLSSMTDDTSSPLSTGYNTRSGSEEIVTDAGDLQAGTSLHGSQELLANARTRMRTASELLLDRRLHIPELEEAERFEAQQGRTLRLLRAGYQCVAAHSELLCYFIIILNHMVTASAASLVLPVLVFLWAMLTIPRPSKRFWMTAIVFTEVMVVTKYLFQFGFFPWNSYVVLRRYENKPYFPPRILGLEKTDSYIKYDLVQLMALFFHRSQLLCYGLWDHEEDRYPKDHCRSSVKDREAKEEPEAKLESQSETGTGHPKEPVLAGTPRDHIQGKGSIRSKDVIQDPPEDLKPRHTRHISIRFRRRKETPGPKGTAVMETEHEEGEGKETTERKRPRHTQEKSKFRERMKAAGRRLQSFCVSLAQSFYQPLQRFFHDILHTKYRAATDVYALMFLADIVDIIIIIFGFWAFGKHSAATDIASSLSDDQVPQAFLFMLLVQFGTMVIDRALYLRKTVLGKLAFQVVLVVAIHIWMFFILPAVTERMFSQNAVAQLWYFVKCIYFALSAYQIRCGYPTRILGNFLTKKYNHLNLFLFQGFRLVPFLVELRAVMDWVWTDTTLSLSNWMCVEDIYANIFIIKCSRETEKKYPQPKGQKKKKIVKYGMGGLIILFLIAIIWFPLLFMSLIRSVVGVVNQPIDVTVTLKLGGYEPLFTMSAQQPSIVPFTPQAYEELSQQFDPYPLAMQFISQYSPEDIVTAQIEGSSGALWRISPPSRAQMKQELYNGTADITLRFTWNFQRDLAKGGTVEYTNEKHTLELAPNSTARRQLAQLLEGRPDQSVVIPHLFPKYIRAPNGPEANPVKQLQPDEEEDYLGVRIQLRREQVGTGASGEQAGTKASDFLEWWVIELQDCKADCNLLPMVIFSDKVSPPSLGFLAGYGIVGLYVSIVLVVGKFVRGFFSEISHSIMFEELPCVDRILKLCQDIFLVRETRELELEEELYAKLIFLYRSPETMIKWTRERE

[3] = target: T1, Piezo1; test: Western blot of p-CaMKII and p-CREB in CLU199 cells; format: cell-based; set-up: Expression of Piezo1 in CLU199 cells was confirmed through RT-PCR; host or cells: mHippoE-18 (CLU199) embryonic mouse hippocampal cell line
Procedure: To evaluate effects on cell signalling, the phosphorylated forms of the Calcium/calmodulin-dependent protein kinase type II (p-CaMKII), and the transcription factor CREB (p-CREB) (28), both crucial players in Ca2+ signalling were analysed.
0.3 MPa ultrasound was then used to treat CLU199 cells with or without Yodal, or the Piezo1 blocker GsMTx-4 [7].
SMARTpool ON-TARGETplus Piezo1 siRNA (L-061455-00-0005) and ON-TARGETplus Non-Targeting Pool (D-001810-10) siRNA were obtained from Dharmacon. Transfection complexes were prepared by incubating siRNA with Lipofectamine RNAiMAX (Invitrogen) in Opti-MEM for 5 minutes at room temperature. 300 μl of complexes added per 35 mm dish or collagen-coated coverslips (5 μg/cm2). 1.5×10^6 cells were added per dish in fully-supplemented DMEM such that the final siRNA concentration was 125 nM. Cells were incubated for 48 hours post-transfection, and then used for further experiments.
(§1) CLU199 cells or primary cortical neurons at DIV 10 were treated with ultrasound at acoustic pressures of 0.1, 0.3 or 0.5 MPa for 20 minutes with 20 s interval inside a humified incubator, 37° C., 5% CO2. The ultrasonic stimulation system and treatment parameters are the same as those described in section 4. Yodal (Tocris Bioscience) was used as a Piezo1 agonist with a concentration of 1 μM, while GsMTx-4 (Abcam) was used as a Piezo1 blocker at a concentration of 10 μM. Yodal was added to culture media, followed by a 20-minute incubation or immediate ultrasound treatment. GsMTx-4 was added to culture media, allowed for 30 minutes incubation, and followed by a further 20-minute incubation or ultrasound treatment.
Cells were lysed with RIPA buffer (EMD Millipore), supplemented with 1× Halt™ Protease and Phosphatase Inhibitor Cocktail (Thermo Fisher Scientific) on ice, centrifuged to clear the lysate, and protein concentrations measured using the Bio-Rad protein assay. 30 or 50 μg total protein per well was loaded on 10% SDS-PAGE gels, electrophoresed, and transferred to methanol-activated PVDF membranes. Membranes were blocked with 3% BSA in Tris-buffered-saline+0.05% Tween-20 (TBST). Membranes were incubated in primary antibody diluted in 5% BSA in TBST overnight, washed with TBST and incubated in secondary antibody solutions, diluted in blocking buffer, for 1 hour at room temperature. […]
Protein levels were quantified through image densitometry using ImageJ. Protein levels were expressed as a fold change compared to the untreated control, an average ±SEM of at least three independent experiments, except in FIG. 2E. Statistical significance was calculated using a two-tailed unpaired student's t-test and P values below 0.05 were considered significant.

[4] = target: T1, Piezo1; test: Immunocytochemical staining of c-Fos, p-CaMKII and p-CREB in primary cortical neurons; format: cell-based; set-up: Expression of Piezo1 in CLU199 cells was confirmed through RT-PCR; host or cells: mHippoE-18 (CLU199) embryonic mouse hippocampal cell line; conditions: GsMTx-4 10 μM followed by 0.3 MPa ultrasound
Procedure: The expression of c-Fos, p-CaMKII and p-CREB was investigated by immunocytochemical staining in primary cortical neurons untreated, treated by ultrasound or treated with GsMTx-4 (10 μM) followed by ultrasound. Each stimulus contained 200 cycles, at 1 kHz RPF with 200 NTB of 500 kHz ultrasound at 0.3 MPa and the results are shown in FIG. 2I.
Primary cortical neurons from embryonic mice brains were harvested as described previously with slight modifications. Briefly, pregnant mice were sacrificed at E16.5-E17, and brains from the embryonic mice were collected. They were then dissected under a microscope to separate the cortex from the other brain mass. Cortical cells were dispersed and seeded into culture dishes or collagen-coated glass coverslips (4 μg/cm2). At DIV 10, the cells were used for further experiments.
as §1
CLU199 cells and primary neurons at DIV 10, including treated with (+) or without (−) ultrasound, were fixed using 4% paraformaldehyde+PBS and permeabilized using 0.1% Triton X-100+PBS. […] The number of c-Fos+ cells were determined by counting the number of DAPI and c-Fos signals co-located with DAPI from 10 FOVs photographed per condition. Results were expressed as a percentage of c-Fos versus DAPI signals, and were subjected to a one-way ANOVA followed by a post-hoc Tukey test. […]

[5] = Yodal 1 μM alone, vs untreated control
[6] = GsMTx-4 10 μM incubation before 0.3 MPa ultrasound

| Compound | number of genes co-downregulated by ultrasound and Yodal [1] | number of genes co-upregulated by ultrasound and Yodal [1] | calcium influx [2] | p-CREB level [3, 5] | p-CaMKII level [3, 5] | p-CREB level after ultrasound [3, 6] | p-CaMKII level after ultrasound [3, 6] | level of p-CREB [4] | level of p-CaMKII [4] | ultrasound-induced c-Fos expression in the nuclei [4] |
| --- | --- | --- | --- | --- | --- | --- | --- | --- | --- | --- |
| Clc1cccc(Cl)c1CSc1nnc(-c2cnccn2)s1 [Yodal] | 23 | 43 | Significant Ca2+ increase; also recorded: significantly higher calcium influx | increased; also recorded: upregulate | increased; also recorded: upregulate |  |  |  |  |  |
| GsMTx-4: Piezo1-specific blocker (Abcam), used at 10 μM (GCLEFWWKCNPNDDKCCRPKLKCSKLFKLCNFSF-NH2; disulfide 16-30, 2-17, 9-23; ends not checked) |  |  |  |  |  | reduced to levels comparable to those in the untreated control; also recorded: inhibits this effect | reduced to levels comparable to those in the untreated control; also recorded: inhibits this effect | affected | affected | inhibited this effect |
